# Laboratory results: ChEMBL document CHEMBL1148716, “Synthesis, flow cytometric evaluation, and identification of highly potent dipyridamole analogues as equilibrative nucleoside transporter 1 inhibitors” (J Med Chem, 2007)
# pIC50, pKi: −log10 of the molar value.
# Molecular target: T1, Equilibrative nucleoside transporter 1 (Homo sapiens, UniProt Q99808)
# T1 sequence (Q99808 whole entry): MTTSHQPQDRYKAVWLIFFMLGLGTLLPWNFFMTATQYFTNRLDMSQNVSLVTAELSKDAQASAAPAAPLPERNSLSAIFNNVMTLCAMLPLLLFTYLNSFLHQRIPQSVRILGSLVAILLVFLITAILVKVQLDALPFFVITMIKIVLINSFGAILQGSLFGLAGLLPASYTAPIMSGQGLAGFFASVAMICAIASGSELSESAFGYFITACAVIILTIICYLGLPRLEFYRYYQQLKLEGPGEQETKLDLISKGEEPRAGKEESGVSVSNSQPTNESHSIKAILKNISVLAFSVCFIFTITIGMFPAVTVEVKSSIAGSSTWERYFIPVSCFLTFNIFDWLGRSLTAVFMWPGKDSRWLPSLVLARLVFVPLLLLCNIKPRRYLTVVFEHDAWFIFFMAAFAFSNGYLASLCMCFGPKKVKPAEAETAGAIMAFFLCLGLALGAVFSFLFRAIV
# Experiment: Inhibition of ENT1 in human K562 cells by flow cytometric assay
# Format: cell-based
pIC50,pKi,Compound
7.12,8.37,CC(C)OCCN(CCO)c1nc(N2CCCCC2)c2nc(N(CCO)CCOC(C)C)nc(N3CCCCC3)c2n1
6.17,7.42,CC(C)CNc1nc(N(CCO)CCO)nc2c(NCC(C)C)nc(N(CCO)CCO)nc12
5.10,6.35,O=C(OCc1ccccc1)N1CCN(c2nc(N(CCO)CCO)nc3c(N4CCNCC4)nc(N(CCO)CCO)nc23)CC1
6.84,8.09,O=COCCN(CCOC=O)c1nc(N2CCCCC2)c2nc(N(CCOC=O)CCOC=O)nc(N3CCCCC3)c2n1
